Experimental data reported in ChEMBL document CHEMBL1201862, “PubChem BioAssay data set” (2004).
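Compound exposure: 48 hours, 5 concentrations, 96-well plates. Abbreviation: GI50, concentration required for 50% inhibition of growth.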 The source made the active and inactive calls. Rule as the data show it: active = GI50 up to about 1.1 µM and inactive = higher.

How the values were obtained:
Test in all cases: NCI tumour cell line growth inhibition, 48 h
786-0 = test system: 786-0
A498 = test system: A498
A549 = test system: A549
ACHN = test system: ACHN
BT-549 = test system: BT-549
CAKI-1 = test system: CAKI-1
CCRF-CEM = test system: CCRF-CEM
COLO 205 = test system: COLO 205
DU-145 = test system: DU-145
EKVX = test system: EKVX
HCC 2998 = test system: HCC 2998
HCT-116 = test system: HCT-116
HCT-15 = test system: HCT-15
HL-60 = test system: HL-60
HOP-62 = test system: HOP-62
HOP-92 = test system: HOP-92
HT-29 = test system: HT-29
Hs-578T = test system: Hs-578T
IGROV-1 = test system: IGROV-1
K562 = test system: K562
KM12 = test system: KM12
LOX IMVI = test system: LOX IMVI
M14 = test system: M14
MCF7 = test system: MCF7
MDA-MB-231 = test system: MDA-MB-231
MDA-MB-435 = test system: MDA-MB-435
MDA-N = test system: MDA-N
MOLT-4 = test system: MOLT-4
Malme-3M = test system: Malme-3M
NCI-H226 = test system: NCI-H226
NCI-H23 = test system: NCI-H23
NCI-H460 = test system: NCI-H460
NCI-H522 = test system: NCI-H522
NCI/ADR-RES = test system: NCI/ADR-RES
OVCAR-3 = test system: OVCAR-3
OVCAR-4 = test system: OVCAR-4
OVCAR-5 = test system: OVCAR-5
OVCAR-8 = test system: OVCAR-8
PC-3 = test system: PC-3
RPMI-8226 = test system: RPMI-8226
RXF 393 = test system: RXF 393
SF-268 = test system: SF-268
SF-295 = test system: SF-295
SF-539 = test system: SF-539
SK-MEL-28 = test system: SK-MEL-28
SK-MEL-2 = test system: SK-MEL-2
SK-MEL-5 = test system: SK-MEL-5
SK-OV-3 = test system: SK-OV-3
SN12C = test system: SN12C
SNB-19 = test system: SNB-19
SNB-75 = test system: SNB-75
SR = test system: SR
SW-620 = test system: SW-620
T47D = test system: T47D
TK-10 = test system: TK-10
U-251 = test system: U-251
UACC-257 = test system: UACC-257
UACC-62 = test system: UACC-62
UO-31 = test system: UO-31

Question: `O=C(CCN1CC2CCC(CC2)C1)c1cccs1` was tested. Which GI50 (786-0) did it give?
Answer: 5.35 µM (inactive)

Question: What about the GI50 (A498) of the same molecule?
Answer: > 87.7 µM (inactive)

Question: And the GI50 (A549)?
Answer: 23.9 µM (inactive)

Question: What about the GI50 (ACHN) of the same molecule?
Answer: 18.7 µM (inactive)

Question: What about the GI50 (BT-549) of the same molecule?
Answer: 21.4 µM (inactive)

Question: What about the GI50 (CAKI-1) of the same molecule?
Answer: 18.7 µM (inactive)

Question: And the GI50 (CCRF-CEM)?
Answer: 1.94 µM (inactive)

Question: And the GI50 (COLO 205)?
Answer: 18.5 µM (inactive)

Question: And the GI50 (DU-145)?
Answer: 17.6 µM (inactive)

Question: What about the GI50 (EKVX) of the same molecule?
Answer: 19.1 µM (inactive)

Question: What about the GI50 (HCC 2998) of the same molecule?
Answer: 15.6 µM (inactive)

Question: What about the GI50 (HCT-116) of the same molecule?
Answer: 19.1 µM (inactive)

Question: What about the GI50 (HCT-15) of the same molecule?
Answer: 20.4 µM

Question: And the GI50 (HL-60)?
Answer: 20.7 µM (inactive)

Question: What about the GI50 (HOP-62) of the same molecule?
Answer: 19.3 µM (inactive)

Question: What about the GI50 (HOP-92) of the same molecule?
Answer: 6.01 µM (inactive)

Question: And the GI50 (HT-29)?
Answer: 24.5 µM (inactive)

Question: What about the GI50 (Hs-578T) of the same molecule?
Answer: 27.3 µM (inactive)

Question: And the GI50 (IGROV-1)?
Answer: 8.73 µM (inactive)

Question: What about the GI50 (K562) of the same molecule?
Answer: 17.5 µM (inactive)

Question: What about the GI50 (KM12) of the same molecule?
Answer: 19.9 µM (inactive)

Question: What about the GI50 (LOX IMVI) of the same molecule?
Answer: 10.7 µM (inactive)

Question: And the GI50 (M14)?
Answer: 16.4 µM (inactive)

Question: What about the GI50 (MCF7) of the same molecule?
Answer: 8.59 µM (inactive)

Question: And the GI50 (MDA-MB-231)?
Answer: 18.2 µM (inactive)

Question: What about the GI50 (MDA-MB-435) of the same molecule?
Answer: 20.8 µM (inactive)

Question: And the GI50 (MDA-N)?
Answer: 17.1 µM (inactive)

Question: And the GI50 (MOLT-4)?
Answer: 3.32 µM (inactive)

Question: And the GI50 (Malme-3M)?
Answer: 21.1 µM (inactive)

Question: And the GI50 (NCI-H226)?
Answer: > 100 µM (inactive)

Question: What about the GI50 (NCI-H23) of the same molecule?
Answer: 18.4 µM (inactive)

Question: And the GI50 (NCI-H460)?
Answer: 18.7 µM (inactive)

Question: And the GI50 (NCI-H522)?
Answer: 17.4 µM (inactive)

Question: What about the GI50 (NCI/ADR-RES) of the same molecule?
Answer: 24.6 µM (inactive)

Question: What about the GI50 (OVCAR-3) of the same molecule?
Answer: 21.1 µM (inactive)

Question: And the GI50 (OVCAR-4)?
Answer: 30.8 µM (inactive)

Question: What about the GI50 (OVCAR-5) of the same molecule?
Answer: 16.4 µM (inactive)

Question: And the GI50 (OVCAR-8)?
Answer: 18.7 µM (inactive)

Question: What about the GI50 (PC-3) of the same molecule?
Answer: 16.7 µM (inactive)

Question: And the GI50 (RPMI-8226)?
Answer: 1.85 µM (inactive)

Question: What about the GI50 (RXF 393) of the same molecule?
Answer: 19 µM (inactive)

Question: And the GI50 (SF-268)?
Answer: 21.2 µM (inactive)

Question: What about the GI50 (SF-295) of the same molecule?
Answer: > 100 µM (inactive)

Question: What about the GI50 (SF-539) of the same molecule?
Answer: 20.9 µM (inactive)

Question: And the GI50 (SK-MEL-28)?
Answer: 17.1 µM (inactive)

Question: And the GI50 (SK-MEL-2)?
Answer: 17.3 µM (inactive)

Question: What about the GI50 (SK-MEL-5) of the same molecule?
Answer: 40.1 µM (inactive)

Question: What about the GI50 (SK-OV-3) of the same molecule?
Answer: > 37.8 µM (inactive)

Question: And the GI50 (SN12C)?
Answer: 18.1 µM (inactive)

Question: What about the GI50 (SNB-19) of the same molecule?
Answer: > 53 µM (inactive)

Question: And the GI50 (SNB-75)?
Answer: 19.2 µM (inactive)

Question: What about the GI50 (SR) of the same molecule?
Answer: 4.49 µM (inactive)

Question: And the GI50 (SW-620)?
Answer: 2.79 µM (inactive)

Question: What about the GI50 (T47D) of the same molecule?
Answer: 6.92 µM (inactive)

Question: What about the GI50 (TK-10) of the same molecule?
Answer: 8.73 µM (inactive)

Question: And the GI50 (U-251)?
Answer: 18.3 µM (inactive)

Question: And the GI50 (UACC-257)?
Answer: 16.1 µM (inactive)

Question: What about the GI50 (UACC-62) of the same molecule?
Answer: 17.7 µM (inactive)

Question: What about the GI50 (UO-31) of the same molecule?
Answer: 8.77 µM (inactive)

Question: What does the source list for `[N-]=[N+]=Nc1ccc(CNc2cc(=O)[nH]c(=O)[nH]2)cc1`?
Answer: GI50 (786-0): > 100 µM (inactive); GI50 (A498): > 100 µM (inactive); GI50 (A549): > 100 µM (inactive); GI50 (ACHN): > 100 µM (inactive); GI50 (BT-549): > 100 µM (inactive); GI50 (CAKI-1): > 100 µM (inactive); GI50 (CCRF-CEM): > 100 µM (inactive); GI50 (COLO 205): > 100 µM (inactive); GI50 (DU-145): > 100 µM (inactive); GI50 (EKVX): > 100 µM (inactive); GI50 (HCC 2998): > 100 µM (inactive); GI50 (HCT-116): > 100 µM (inactive); GI50 (HCT-15): > 100 µM; GI50 (HL-60): > 100 µM (inactive); GI50 (HOP-62): > 100 µM (inactive); GI50 (HOP-92): > 100 µM (inactive); GI50 (HT-29): > 100 µM (inactive); GI50 (Hs-578T): > 100 µM (inactive); GI50 (IGROV-1): > 95.7 µM (inactive); GI50 (K562): > 100 µM (inactive); GI50 (KM12): > 100 µM (inactive); GI50 (LOX IMVI): > 100 µM (inactive); GI50 (M14): > 100 µM (inactive); GI50 (MCF7): > 100 µM (inactive); GI50 (MDA-MB-231): > 100 µM (inactive); GI50 (MDA-MB-435): > 49.2 µM (inactive); GI50 (MDA-N): > 100 µM (inactive); GI50 (MOLT-4): > 100 µM (inactive); GI50 (Malme-3M): > 100 µM (inactive); GI50 (NCI-H226): > 100 µM (inactive); GI50 (NCI-H23): > 100 µM (inactive); GI50 (NCI-H460): > 100 µM (inactive); GI50 (NCI-H522): > 100 µM (inactive); GI50 (NCI/ADR-RES): > 100 µM (inactive); GI50 (OVCAR-3): > 100 µM (inactive); GI50 (OVCAR-4): > 100 µM (inactive); GI50 (OVCAR-5): > 100 µM (inactive); GI50 (OVCAR-8): > 100 µM (inactive); GI50 (PC-3): > 100 µM (inactive); GI50 (RPMI-8226): > 100 µM (inactive); GI50 (RXF 393): > 100 µM (inactive); GI50 (SF-268): > 100 µM (inactive); GI50 (SF-295): > 100 µM (inactive); GI50 (SF-539): > 100 µM (inactive); GI50 (SK-MEL-28): > 50.7 µM (inactive); GI50 (SK-MEL-2): > 100 µM (inactive); GI50 (SK-MEL-5): > 100 µM (inactive); GI50 (SK-OV-3): > 100 µM (inactive); GI50 (SN12C): > 100 µM (inactive); GI50 (SNB-19): > 100 µM (inactive); GI50 (SNB-75): > 100 µM (inactive); GI50 (SR): > 100 µM (inactive); GI50 (SW-620): > 64.1 µM (inactive); GI50 (T47D): > 100 µM (inactive); GI50 (TK-10): > 100 µM (inactive); GI50 (U-251): > 100 µM (inactive); GI50 (UACC-257): > 100 µM (inactive); GI50 (UACC-62): > 100 µM (inactive); GI50 (UO-31): > 100 µM (inactive)
